US6251944A, “Para-substituted phenylene derivatives” (G. D. Searle & Company, priority 1999, dated 2001)
Structures can show the parent of a compound that is named as a salt.

Assays:
[1] = target: T1, Human vitronectin receptor(αvβ3) (Homo sapiens, UniProt P05106+P06756); assay: Vitronectin adhesion assay (solid phase receptor assay, αvβ3); settings: inhibition of 50% of maximum binding of biotinylated vitronectin; highest concentration tested 1.0×10^-4 M; read-out: AvB3 IC50
T1 construct: purified from human placenta; from tissue; host or cells: human placenta
Procedure: The activity of the compounds of the present invention was tested in the following assays. […] Assay buffer, OPD substrate tablets, and RIA grade BSA were obtained from Sigma (St. Louis, Mo.). Anti-biotin antibody was obtained from Calbiochem (La Jolla, Calif.). Linbro microtiter plates were obtained from Flow Labs (McLean, Va.). ADP reagent was obtained from Sigma (St. Louis, Mo.). […] The purified human vitronectin receptor (αvβ3) was diluted from stock solutions to 1.0 μg/mL in Tris-buffered saline containing 1.0 mM Ca^++, Mg^++, and Mn^++, pH 7.4 (TBS^+++). The diluted receptor was immediately transferred to Linbro microtiter plates at 100 μL/well (100 ng receptor/well). The plates were sealed and incubated overnight at 4° C. to allow the receptor to bind to the wells. All remaining steps were at room temperature. The assay plates were emptied and 200 μL of 1% RIA grade BSA in TBS^+++ (TBS^+++ /BSA) were added to block exposed plastic surfaces. Following a 2 hour incubation, the assay plates were washed with TBS^+++ using a 96 well plate washer. […] The competition occurred for two hours after which all wells were washed with a plate washer as before. […] After 30 minutes, the plates were washed and incubated with OPD/H2 O2 substrate in 100 mM/L Citrate buffer, pH 5.0. […] The data were analyzed using a macro written for use with the EXCEL™ spreadsheet program. The mean, standard deviation, and % CV were determined for duplicate concentrations. The mean A450 values were normalized to the mean of four maximum-binding controls (no competitor added)(B-MAX). The normalized values were subjected to a four parameter curve fit algorithm [Rodbard et al., Int. […] Ser.

[2] = target: T2, Human fibrinogen receptor (αIIbβ3) (Homo sapiens, UniProt P05106+P08514); assay: Purified IIb/IIIa receptor assay (solid phase receptor assay); settings: inhibition of 50% of maximum binding of biotinylated vitronectin; highest concentration tested 1.0×10^-4 M
T2 construct: purified from outdated platelets; from tissue; host or cells: outdated platelets (human)
Procedure: The activity of the compounds of the present invention was tested in the following assays.
Human fibrinogen receptor (αIIbβ3) was purified from outdated platelets. […] Biotinylated human vitronectin was prepared by coupling NHS-biotin from Pierce Chemical Company (Rockford, Ill.) to purified vitronectin as previously described. […] Anti-biotin antibody was obtained from Calbiochem (La Jolla, Calif.). Linbro microtiter plates were obtained from Flow Labs (McLean, Va.). ADP reagent was obtained from Sigma (St. Louis, Mo.).
Solid Phase Receptor Assays
The purified human fibrinogen receptor (αIIbβ3) was diluted from stock solutions to 1.0 μg/mL in Tris-buffered saline containing 1.0 mM Ca^++, Mg^++, and Mn^++, pH 7.4 (TBS^+++). The diluted receptor was immediately transferred to Linbro microtiter plates at 100 μL/well (100 ng receptor/well). The plates were sealed and incubated overnight at 4° C. to allow the receptor to bind to the wells. All remaining steps were at room temperature. The assay plates were emptied and 200 μL of 1% RIA grade BSA in TBS^+++ (TBS^+++ /BSA) were added to block exposed plastic surfaces. Following a 2 hour incubation, the assay plates were washed with TBS^+++ using a 96 well plate washer. Logarithmic serial dilution of the test compound and controls were made starting at a stock concentration of 2 mM and using 2 nM biotinylated vitronectin in TBS^+++ /BSA as the diluent. This premixing of labeled ligand with test (or control) ligand, and subsequent transfer of 50 μL aliquots to the assay plate was carried out with a CETUS Propette robot; the final concentration of the labeled ligand was 1 nM and the highest concentration of test compound was 1.0×10^-4 M. The competition occurred for two hours after which all wells were washed with a plate washer as before. Affinity purified horseradish peroxidase labeled goat anti-biotin antibody was diluted 1:3000 in TBS^+++ /BSA and 125 μL were added to each well. After 30 minutes, the plates were washed and incubated with […]/H2 O2 substrate in 100 mM/L citrate buffer, pH 5.0. The plate was read with a microtiter plate reader at a wavelength of 450 nm and when the maximum-binding control wells reached an absorbance of about 1.0, the final A450 were recorded for analysis. The data were analyzed using a macro written for use with the EXCEL™ spreadsheet program. The mean, standard deviation, and % CV were determined for duplicate concentrations. The mean A450 values were normalized to the mean of four maximum-binding controls (no competitor added) (B-MAX). The normalized values were subjected to a four parameter curve fit algorithm, [Robard et al., Int.

T1 sequence (P06756 31-889 limits assumed): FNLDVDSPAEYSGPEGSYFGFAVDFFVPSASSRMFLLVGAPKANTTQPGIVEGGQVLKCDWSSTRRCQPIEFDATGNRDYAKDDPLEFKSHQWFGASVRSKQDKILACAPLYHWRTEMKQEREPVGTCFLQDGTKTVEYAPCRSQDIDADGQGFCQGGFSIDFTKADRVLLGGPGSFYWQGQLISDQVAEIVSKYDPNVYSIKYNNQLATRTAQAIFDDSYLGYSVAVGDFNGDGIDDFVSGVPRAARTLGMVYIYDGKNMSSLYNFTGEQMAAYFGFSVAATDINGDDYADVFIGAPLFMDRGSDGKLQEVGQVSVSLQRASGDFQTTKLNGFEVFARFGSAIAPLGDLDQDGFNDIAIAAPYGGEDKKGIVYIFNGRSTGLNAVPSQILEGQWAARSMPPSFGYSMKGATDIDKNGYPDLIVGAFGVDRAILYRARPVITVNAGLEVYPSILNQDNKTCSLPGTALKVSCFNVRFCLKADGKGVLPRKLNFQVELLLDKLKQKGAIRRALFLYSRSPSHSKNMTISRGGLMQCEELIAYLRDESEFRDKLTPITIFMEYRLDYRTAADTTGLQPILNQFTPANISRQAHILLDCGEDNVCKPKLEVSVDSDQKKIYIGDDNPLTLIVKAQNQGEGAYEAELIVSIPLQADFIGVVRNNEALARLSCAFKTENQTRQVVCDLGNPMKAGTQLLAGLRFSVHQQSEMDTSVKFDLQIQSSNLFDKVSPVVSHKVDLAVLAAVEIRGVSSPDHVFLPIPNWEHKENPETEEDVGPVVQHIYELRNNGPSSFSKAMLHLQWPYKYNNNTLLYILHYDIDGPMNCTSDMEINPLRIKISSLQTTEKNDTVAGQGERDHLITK
T1 sequence (P06756 891-1048 limits assumed): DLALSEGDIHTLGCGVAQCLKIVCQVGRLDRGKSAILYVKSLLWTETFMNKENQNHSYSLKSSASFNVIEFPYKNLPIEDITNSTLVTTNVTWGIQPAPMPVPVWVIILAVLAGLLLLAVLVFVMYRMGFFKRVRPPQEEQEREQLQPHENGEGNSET
T1 sequence (P05106 27-788): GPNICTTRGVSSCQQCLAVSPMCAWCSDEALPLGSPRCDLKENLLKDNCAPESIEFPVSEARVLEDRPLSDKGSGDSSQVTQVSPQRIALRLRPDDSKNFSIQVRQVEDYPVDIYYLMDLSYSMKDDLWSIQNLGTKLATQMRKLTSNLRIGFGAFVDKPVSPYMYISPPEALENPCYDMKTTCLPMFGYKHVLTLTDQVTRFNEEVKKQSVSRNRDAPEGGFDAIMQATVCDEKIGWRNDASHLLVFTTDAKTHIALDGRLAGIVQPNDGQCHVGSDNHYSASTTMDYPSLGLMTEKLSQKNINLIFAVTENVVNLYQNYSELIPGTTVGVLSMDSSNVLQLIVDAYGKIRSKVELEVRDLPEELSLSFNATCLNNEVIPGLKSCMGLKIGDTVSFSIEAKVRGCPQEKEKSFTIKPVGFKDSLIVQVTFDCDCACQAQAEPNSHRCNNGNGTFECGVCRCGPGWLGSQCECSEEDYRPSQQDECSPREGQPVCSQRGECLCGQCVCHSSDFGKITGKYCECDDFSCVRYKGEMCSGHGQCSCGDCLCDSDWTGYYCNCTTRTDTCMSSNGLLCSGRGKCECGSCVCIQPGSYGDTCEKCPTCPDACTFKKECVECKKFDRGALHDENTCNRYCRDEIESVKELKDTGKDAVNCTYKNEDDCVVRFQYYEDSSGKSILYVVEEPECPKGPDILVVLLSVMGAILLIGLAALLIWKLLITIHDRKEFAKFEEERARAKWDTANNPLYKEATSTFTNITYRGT
T2 sequence (P08514 32-887 limits assumed): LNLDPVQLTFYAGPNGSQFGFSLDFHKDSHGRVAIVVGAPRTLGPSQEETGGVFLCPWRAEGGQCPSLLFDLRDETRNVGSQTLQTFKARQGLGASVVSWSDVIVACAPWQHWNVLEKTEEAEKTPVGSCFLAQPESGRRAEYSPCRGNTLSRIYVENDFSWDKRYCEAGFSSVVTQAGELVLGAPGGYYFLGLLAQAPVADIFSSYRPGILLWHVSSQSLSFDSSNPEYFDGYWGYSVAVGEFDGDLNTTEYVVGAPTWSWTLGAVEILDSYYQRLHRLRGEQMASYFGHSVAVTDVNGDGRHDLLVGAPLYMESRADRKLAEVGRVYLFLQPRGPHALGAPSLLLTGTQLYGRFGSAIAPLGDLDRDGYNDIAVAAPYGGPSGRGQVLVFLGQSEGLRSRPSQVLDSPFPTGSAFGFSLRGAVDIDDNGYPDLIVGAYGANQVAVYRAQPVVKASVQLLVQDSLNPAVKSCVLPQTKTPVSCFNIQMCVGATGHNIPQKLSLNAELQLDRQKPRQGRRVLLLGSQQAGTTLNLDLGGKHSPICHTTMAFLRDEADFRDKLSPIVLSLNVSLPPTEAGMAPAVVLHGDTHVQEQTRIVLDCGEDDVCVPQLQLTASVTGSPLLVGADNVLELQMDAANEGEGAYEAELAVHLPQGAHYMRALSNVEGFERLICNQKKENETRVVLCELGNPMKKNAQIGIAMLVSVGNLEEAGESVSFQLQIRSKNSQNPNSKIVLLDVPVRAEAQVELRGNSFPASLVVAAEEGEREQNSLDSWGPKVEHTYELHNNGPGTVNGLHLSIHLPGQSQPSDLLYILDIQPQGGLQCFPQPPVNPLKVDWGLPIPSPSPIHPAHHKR
T2 sequence (P08514 891-1039 limits assumed): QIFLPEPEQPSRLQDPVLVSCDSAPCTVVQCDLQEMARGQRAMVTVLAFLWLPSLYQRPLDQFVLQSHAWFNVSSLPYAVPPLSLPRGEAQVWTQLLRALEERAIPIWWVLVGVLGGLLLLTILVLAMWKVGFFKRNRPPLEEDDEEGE
T2 sequence (P05106 27-788): as the sequence (P05106 27-788) above

Structure (SMILES): CCC(Cc1ccc(NC(=O)c2cccc(NC(=N)N)c2)cc1)C(=O)O (stereo not drawn) [Example 129, 4-[[[3-[(aminoiminomethyl)amino]phenyl]carbonyl]amino]-α-ethylbenzenepropanoic Acid, trifluoroacetate Salt]
- IC50 [1]: 265 nM
- IC50 [2]: 5260 nM

Structure (SMILES): CC(C)COC(=O)NC(Cc1ccc(NC(=O)c2cc(NC(=N)N)cc(C(F)(F)F)c2)cc1)C(=O)O (stereo not shown) [Example 2, 4-[[[3-[(aminoiminomethyl)amino]-5-(trifluoromethyl)phenyl]carbonyl]amino]-N-[(2-methylpropoxy)carbonyl]phenylalanine, trifluoroacetate Salt]
- IC50 [1]: 0.18 nM
- IC50 [2]: 8.08 nM

Structure (SMILES): CC(C)(C)CC(=O)NC(Cc1ccc(NC(=O)c2cc(NC(=N)N)cc(C(F)(F)F)c2)cc1)C(=O)O (stereo not shown) [Example 110, 4-[[[3-[(aminoiminomethyl)amino]-5-(trifluoromethyl)phenyl]carbonyl]amino]-N-(3,3-dimethyl-1-oxobutyl)phenylalanine, trifluoroacetate Salt]
- IC50 [1]: 4 nM
- IC50 [2]: 326 nM

Structure (SMILES): COc1cc(NC(=O)c2cccc(NC(=N)N)c2)ccc1OCC(=O)O [Example 118, [4-[[[3-[(aminoiminomethyl)amino]phenyl]carbonyl]amino]-2-methoxyphenoxy]acetic Acid, trifluoroacetate Salt]
- IC50 [1]: 3 nM
- IC50 [2]: 54 nM

Structure (SMILES): CC(C)OC(=O)NC(Cc1ccc(NC(=O)c2cccc(C(=O)NC(=N)N)c2)cc1)C(=O)O (stereo not shown) [Example 128, 4-[[[3-[[(aminoiminomethyl)amino]carbonyl]phenyl]carbonyl]amino]-N-[(1-methylethoxy)carbonyl]phenylalanine, trifluoroacetate Salt]
- IC50 [1]: 216 nM
- IC50 [2]: 20 nM

Structure (SMILES): CC(C)OC(=O)NC(Cc1ccc(NC(=O)c2ccc(Cl)c(NC(=N)N)c2)cc1)C(=O)O (stereo not shown) [Example 87, 4[[[3-[(aminoiminomethyl)amino]-4-chlorophenyl]carbonyl]amino]-N-[(1-methylethoxy)carbonyl]phenylalanine]
- IC50 [1]: 0.44 nM
- IC50 [2]: 85.3 nM

Structure (SMILES): CC(C)COC(=O)NC(Cc1ccc(NC(=O)c2cccc(NC(=N)N)c2)cc1)C(=O)O (stereo not shown) [Example 53, 4-[[[3-[(aminoiminomethyl)amino]phenyl]-carbonyl]amino]-N-[(2-methylpropoxy)carbonyl]-phenylalanine, trifluoroacetate Salt]
- IC50 [1]: 0.56 nM
- IC50 [2]: 15.3 nM

Structure (SMILES): CCCCS(=O)(=O)NC(Cc1ccc(OCc2cccc(NC(=N)N)c2)cc1)C(=O)O (stereo not shown) [Example 11, O-[[3-[(aminoiminomethyl)amino]-phenyl]methyl]-N-(butylsulfonyl)tyrosine, trifluoroacetate Salt monohydrate]
- IC50 [1]: 2.2 nM
- IC50 [2]: 4 nM
